# Measurements published in PubChem BioAssay (NCI).
#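 Method: 48-hour compound exposure of cells in 96-well plates, five concentrations, linear interpolation of endpoints. GI50: concentration for 50% inhibition of growth. The concentration for full growth arrest is given as TGI.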
# Legend:
# Assay in all cases: growth of human tumour cells (NCI), 48 h
# [1] = tested on: HT29 colon
# [2] = tested on: TK-10 renal
# [3] = tested on: BT-549 breast
# [4] = tested on: ACHN renal
# [5] = tested on: EKVX NSCLC
# [6] = tested on: M14 melanoma
# [7] = tested on: SK-MEL-2 melanoma
# [8] = tested on: UACC-62 melanoma
# [9] = tested on: COLO 205 colon
# [10] = tested on: HL-60(TB) leukemia
# [11] = tested on: SK-MEL-5 melanoma
# [12] = tested on: NCI-H23 lung
Compound,TGI [1] [µM],TGI [2] [µM],TGI [3] [µM],TGI [4] [µM],TGI [5] [µM],TGI [6] [µM],TGI [7] [µM],TGI [8] [µM],TGI [9] [µM],TGI [10] [µM],TGI [11] [µM],TGI [12] [µM],GI50 [9] [µM]
CS(=O)(=O)c1[nH]nc2[nH]c(=O)[nH]c(=O)c12,> 10,> 10,> 10,> 10,> 10,> 10,> 10,> 10,> 10,> 10,> 10,> 10,
COC1C=C(NCC2(CO)CCC2)NC(N)=N1 (stereo unspecified),> 100,,> 100,,> 100,> 100,> 100,> 100,> 100,> 100,> 100,> 100,
COc1cccc(-c2cccc(SC)n2)n1,93.8,> 100,> 100,> 100,97.3,> 100,> 100,> 100,40.2,31,44,> 100,
c1ccc2[nH]c3[nH]c4[nH]c5ccccc5[nH]c4[nH]c3[nH]c2c1,> 100,> 100,> 100,> 100,> 100,> 100,> 100,> 100,> 100,> 100,> 100,> 100,
O=C(CSCC(=O)N/N=C/c1cccc(OCc2ccccc2)c1)N/N=C/c1cccc(OCc2ccccc2)c1,> 100,> 100,> 100,> 100,> 100,> 100,> 100,> 100,> 100,53.3,> 92.8,> 100,37.5
COc1ccc(-n2c3c(c4cc(O)ccc42)C(=O)c2ccccc2C3=O)cc1,18.6,31.1,31.5,56.7,43,> 100,> 100,25.6,> 100,> 100,> 100,> 100,
CC(=O)n1nc(-c2nc3ccccc3nc2Cl)cc1Cl,51.9,> 100,28.8,28.5,37.7,19.4,> 100,> 100,33.2,35,16.1,49.6,
NC(C(F)(F)F)(C(F)(F)F)P(=O)(c1ccccc1)c1ccccc1,> 100,> 100,> 100,> 100,> 100,> 100,> 100,> 100,> 100,> 100,> 100,> 100,
CC(=O)OCC1OC(n2c3c(c(-c4ccc(Cl)cc4)c(C#N)c2=S)C(=O)CC(C)(C)C3)C(OC(C)=O)C(OC(C)=O)C1OC(C)=O (stereo unspecified),> 72.2,> 100,12.8,> 100,,> 100,46.4,27.8,> 62.8,> 61.1,48.2,> 100,
